# From patent US20210070748A1, “INHIBITORS OF BRUTONS TYROSINE KINASE” (Pharmacyclics LLC, priority 2015, published 2021)
# Tests used:
# JAK3 = molecular target: T1, JAK3 (Homo sapiens, UniProt P52333); experiment: Inhibition of a panel of kinases, in vitro HotSpot kinase assay: JAK3; format: biochemical; details: D-compounds panel data; 1 μM ATP; read-out: IC50 JAK3
# T1 sequence (P52333 1-1124): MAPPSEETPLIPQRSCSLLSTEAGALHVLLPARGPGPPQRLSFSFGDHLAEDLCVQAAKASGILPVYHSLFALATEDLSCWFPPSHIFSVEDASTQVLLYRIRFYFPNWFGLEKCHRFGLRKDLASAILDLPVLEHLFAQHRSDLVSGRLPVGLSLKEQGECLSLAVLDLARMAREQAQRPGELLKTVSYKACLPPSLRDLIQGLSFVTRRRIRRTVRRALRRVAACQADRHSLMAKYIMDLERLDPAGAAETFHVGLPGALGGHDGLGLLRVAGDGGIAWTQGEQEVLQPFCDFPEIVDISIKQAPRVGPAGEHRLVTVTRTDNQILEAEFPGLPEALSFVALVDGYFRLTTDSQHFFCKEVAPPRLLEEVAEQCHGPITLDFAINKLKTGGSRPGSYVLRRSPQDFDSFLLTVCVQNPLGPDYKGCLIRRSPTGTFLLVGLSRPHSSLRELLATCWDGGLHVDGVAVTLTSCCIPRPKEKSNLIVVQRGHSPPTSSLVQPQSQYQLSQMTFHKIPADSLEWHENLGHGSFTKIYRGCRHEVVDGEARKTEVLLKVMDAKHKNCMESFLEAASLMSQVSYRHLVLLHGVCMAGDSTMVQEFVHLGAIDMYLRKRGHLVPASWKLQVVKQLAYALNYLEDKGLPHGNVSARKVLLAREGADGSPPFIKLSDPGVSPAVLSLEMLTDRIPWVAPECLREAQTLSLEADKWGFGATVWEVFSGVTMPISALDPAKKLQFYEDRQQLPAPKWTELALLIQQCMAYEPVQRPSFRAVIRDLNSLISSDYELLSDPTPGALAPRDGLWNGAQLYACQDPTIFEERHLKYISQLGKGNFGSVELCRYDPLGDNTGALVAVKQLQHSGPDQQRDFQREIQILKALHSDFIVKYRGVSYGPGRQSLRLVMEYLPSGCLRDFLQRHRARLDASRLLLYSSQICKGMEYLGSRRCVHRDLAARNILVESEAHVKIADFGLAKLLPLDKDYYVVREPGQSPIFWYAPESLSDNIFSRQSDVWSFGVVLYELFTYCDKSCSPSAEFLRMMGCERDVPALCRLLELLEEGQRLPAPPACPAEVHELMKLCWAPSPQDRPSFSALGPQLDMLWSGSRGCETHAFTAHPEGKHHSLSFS
# TEC = molecular target: T2, TEC (Homo sapiens, UniProt P42680); experiment: Inhibition of a panel of kinases, in vitro HotSpot kinase assay: TEC; format: biochemical; details: D-compounds panel data; 1 μM ATP
# T2 sequence (P42680 1-631): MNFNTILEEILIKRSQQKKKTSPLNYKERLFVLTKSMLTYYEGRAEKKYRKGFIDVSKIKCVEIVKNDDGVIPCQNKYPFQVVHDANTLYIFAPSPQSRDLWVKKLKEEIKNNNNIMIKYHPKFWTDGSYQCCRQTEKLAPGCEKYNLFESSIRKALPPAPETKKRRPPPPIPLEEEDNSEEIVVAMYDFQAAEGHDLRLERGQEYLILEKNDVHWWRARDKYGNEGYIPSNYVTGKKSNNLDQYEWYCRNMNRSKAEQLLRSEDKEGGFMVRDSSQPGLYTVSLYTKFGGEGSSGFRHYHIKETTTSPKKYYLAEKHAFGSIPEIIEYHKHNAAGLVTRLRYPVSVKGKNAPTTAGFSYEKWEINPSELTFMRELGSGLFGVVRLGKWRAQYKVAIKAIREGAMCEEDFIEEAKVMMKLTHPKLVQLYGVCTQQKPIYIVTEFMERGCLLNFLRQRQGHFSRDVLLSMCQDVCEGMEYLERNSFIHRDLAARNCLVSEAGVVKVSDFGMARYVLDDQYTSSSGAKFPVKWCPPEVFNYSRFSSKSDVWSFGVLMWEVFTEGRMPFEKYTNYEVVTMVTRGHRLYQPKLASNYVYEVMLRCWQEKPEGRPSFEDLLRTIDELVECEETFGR
# Method: The degree of inhibition of a panel of kinases is determined using the in vitro HotSpot kinase assay (purified enzymes, ^33P-ATP, an appropriate substrate and 1 μM ATP).
SMILES,IC50 (JAK3),IC50 (TEC)
"C[C@@H]1[C@H](NC(=O)c2ccc(C3CC3)cc2F)CCCN1c1cnc(C(N)=O)c(Nc2ccc(N3CCN(C4CCCC4)CC3)cc2)n1 [Example D-5, 3-{[4-(4-cyclopentylpiperazin-1-yl)phenyl]amino}-5-[(2R,3R)-3-(4-cyclopropyl-2-fluorobenzamido)-2-methylpiperidin-1-yl]pyrazine-2-carboxamide]",100 to 1000 nM,10 to 100 nM
"C[C@@H]1[C@H](n2ccc3cc(C4CC4)ccc3c2=O)CCCN1c1cnc(C(N)=O)c(Nc2ccc(N3CCN(C)CC3)cc2)n1 [Example D-6, 5-[(2R,3R)-3-(6-cyclopropyl-1-oxo-1,2-dihydroisoquinolin-2-yl)-2-methylpiperidin-1-yl]-3-{[4-(4-methylpiperazin-1-yl)phenyl]amino}pyrazine-2-carboxamide]",1000 to 10000 nM,10 to 100 nM
"CC(C)N1CCN(c2ccc(Nc3nc(N4CCC[C@@H](NC(=O)c5ccc(C6CC6)cc5F)[C@H]4C)cnc3C(N)=O)cc2)CC1 [Example D-7, 5-[(2R,3R)-3-(4-cyclopropyl-2-fluorobenzamido)-2-methylpiperidin-1-yl]-3-({4-[4-(propan-2-yl)piperazin-1-yl]phenyl}amino)pyrazine-2-carboxamide]",1000 to 10000 nM,10 to 100 nM
"C[C@@H]1[C@H](NC(=O)c2ccc(C3CC3)cc2F)CCCN1c1cnc(C(N)=O)c(Nc2ccc(N3CCN(C)CC3)cn2)n1 [Example D-8, 5-[(2R,3R)-3-(4-cyclopropyl-2-fluorobenzamido)-2-methylpiperidin-1-yl]-3-{[5-(4-methylpiperazin-1-yl)pyridin-2-yl]amino}pyrazine-2-carboxamide]",> 10000 nM,1000 to 10000 nM
"C[C@@H]1[C@H](NC(=O)Nc2cccnc2)CCCN1c1cnc(C(N)=O)c(Nc2ccc(C3(C)CCN(C4CCCC4)CC3)cc2)n1 [Example D-9, 3-{[4-(1-cyclopentyl-4-methylpiperidin-4-yl)phenyl]amino}-5-[(2R,3R)-2-methyl-3-{[(pyridin-3-yl)carbamoyl]amino}piperidin-1-yl]pyrazine-2-carboxamide]",100 to 1000 nM,10 to 100 nM
"C[C@@H]1[C@H](NC(=O)c2ccc(C3CC3)cc2F)CCCN1c1cnc(C(N)=O)c(Nc2ccc(N3CCN(C)CC3=O)cc2)n1 [Example D-10, 5-[(2R,3R)-3-(4-cyclopropyl-2-fluorobenzamido)-2-methylpiperidin-1-yl]-3-{[4-(4-methyl-2-oxopiperazin-1-yl)phenyl]amino}pyrazine-2-carboxamide]",1000 to 10000 nM,10 to 100 nM
"C[C@@H]1[C@H](NC(=O)c2ccc(C(F)(F)F)cc2)CCCN1c1cnc(C(N)=O)c(Nc2ccc(N3CCN(C)CC3)cc2)n1 [Example D-11, 5-[(2R,3R)-2-methyl-3-[4-(trifluoromethyl)benzamido]piperidin-1-yl]-3-{[4-(4-methylpiperazin-1-yl)phenyl]amino}pyrazine-2-carboxamide]",1000 to 10000 nM,10 to 100 nM
"C[C@@H]1[C@H](NC(=O)c2ccc(OC(F)(F)F)cc2)CCCN1c1cnc(C(N)=O)c(Nc2cnn(C)c2)n1 [Example D-95, 3-[(1-methyl-1H-pyrazol-4-yl)amino]-5-[(2R,3R)-2-methyl-3-[4-(trifluoromethoxy)benzamido]piperidin-1-yl]pyrazine-2-carboxamide]",1000 to 10000 nM,10 to 100 nM
"C[C@@H]1[C@H](NC(=O)c2ccc(C3CC3)cc2)CCCN1c1cnc(C(N)=O)c(Nc2ccc(N3CCC(F)(F)CC3)cc2)n1 [Example D-96, 5-[(2R,3R)-3-(4-cyclopropylbenzamido)-2-methylpiperidin-1-yl]-3-{[4-(4,4-difluoropiperidin-1-yl)phenyl]amino}pyrazine-2-carboxamide]",1000 to 10000 nM,10 to 100 nM
"C[C@@H]1[C@H](NC(=O)c2ccc(C3CC3)cc2)CCCN1c1cnc(C(N)=O)c(Nc2ccc(N3CCN(CC(F)(F)F)CC3)cc2)n1 [Example D-97, 5-[(2R,3R)-3-(4-cyclopropylbenzamido)-2-methylpiperidin-1-yl]-3-({4-[4-(2,2,2-trifluoroethyl)piperazin-1-yl]phenyl}amino)pyrazine-2-carboxamide]",1000 to 10000 nM,10 to 100 nM
"C[C@@H]1[C@H](NC(=O)c2ccc(C3CC3)cc2)CCCN1c1cnc(C(N)=O)c(Nc2ccc(OC3CCN(CC(F)(F)F)CC3)cc2)n1 [Example D-98, 5-[(2R,3R)-3-(4-cyclopropylbenzamido)-2-methylpiperidin-1-yl]-3-[(4-{[1-(2,2,2-trifluoroethyl)piperidin-4-yl]oxy}phenyl)amino]pyrazine-2-carboxamide]",1000 to 10000 nM,100 to 1000 nM
"C[C@@H]1[C@H](NC(=O)c2ccc(C3CC3)cc2)CCCN1c1cnc(C(N)=O)c(Nc2ccc(N3CCC4(CC3)COC4)cc2)n1 [Example D-99, 5-[(2R,3R)-3-(4-cyclopropylbenzamido)-2-methylpiperidin-1-yl]-3-[(4-{2-oxa-7-azaspiro[3.5]nonan-7-yl}phenyl)amino]pyrazine-2-carboxamide]",100 to 1000 nM,≤ 10 nM
"C[C@@H]1[C@H](NC(=O)c2ccc(C3CC3)cc2)CCCN1c1cnc(C(N)=O)c(Nc2ccc(N3CCC(C(C)(C)O)CC3)cc2)n1 [Example D-100, 5-[(2R,3R)-3-(4-cyclopropylbenzamido)-2-methylpiperidin-1-yl]-3-({4-[4-(2-hydroxypropan-2-yl)piperidin-1-yl]phenyl}amino)pyrazine-2-carboxamide]",1000 to 10000 nM,≤ 10 nM
"C[C@@H]1[C@H](NC(=O)c2ccc(C3CC3)cc2)CCCN1c1cnc(C(N)=O)c(Nc2ccc(OC3CCN(C4CCCC4)CC3)cc2)n1 [Example D-101, 3-({4-[(1-cyclopentylpiperidin-4-yl)oxy]phenyl}amino)-5-[(2R,3R)-3-(4-cyclopropylbenzamido)-2-methylpiperidin-1-yl]pyrazine-2-carboxamide]",1000 to 10000 nM,≤ 10 nM
"C[C@@H]1[C@H](NC(=O)N(C)C)CCCN1c1cnc(C(N)=O)c(Nc2ccc(OC3CCN(C4CCCC4)CC3)cc2)n1 [Example D-102, 3-({4-[(1-cyclopentylpiperidin-4-yl)oxy]phenyl}amino)-5-[(2R,3R)-3-[(dimethylcarbamoyl)amino]-2-methylpiperidin-1-yl]pyrazine-2-carboxamide]",100 to 1000 nM,10 to 100 nM
"C[C@@H]1[C@H](NC(=O)c2ccc(C3CC3)cc2)CCCN1c1cnc(C(N)=O)c(Nc2ccc(N3CCN(C)CC3)cc2F)n1 [Example D-103, 5-[(2R,3R)-3-(4-cyclopropylbenzamido)-2-methylpiperidin-1-yl]-3-{[2-fluoro-4-(4-methylpiperazin-1-yl)phenyl]amino}pyrazine-2-carboxamide]",> 10000 nM,100 to 1000 nM
"C[C@@H]1[C@H](NC(=O)c2ccc(C3CC3)cc2)CCCN1c1cnc(C(N)=O)c(Nc2ccc(OC3C[C@H]4CC[C@@H](C3)N4C)cc2)n1 (stereo partly drawn) [Example D-104, 5-[(2R,3R)-3-(4-cyclopropylbenzamido)-2-methylpiperidin-1-yl]-3-[(4-{[(1R,5S)-8-methyl-8-azabicyclo[3.2.1]octan-3-yl]oxy}phenyl)amino]pyrazine-2-carboxamide]",100 to 1000 nM,≤ 10 nM
